Measured values published in patent US20160143913A1, “COMBINATION” (Novartis AG, priority 2009, published 2016).

Legend:
MDA-MB-175-VII = assay: Cell growth inhibition assay (Cell Titer Glo), MDA-MB-175-VII; assay type: cell-based, Human
From the text: (§1) Human breast tumor line, MDA-MB-175-VII, human colon tumor lines, Colo-205, DLD-1, HCT-8, HT-29, LS-1034, NCI-H508, RKO, SW1417, SW1463, SW480, SW837 and T84, and human lung tumor lines, A427, A549, Calu 3, Calu 6, HCC827, NCI-H1155, NCI-H1355, NCI-H1792, NCI-H23, NCI-H727, SW1573 and SW900 were from ATCC. Human breast tumor line EFM-19 was from German Collection of Microorganisms and Cell Cultures. Human lung tumor line COR-L23 was from European Collection of Cell Cultures (UK). Human colon tumor line KM12 and human lung tumor line Hop62 were from National Cancer Institute. MV522 was from University of California at San Diego. All lines were cultured in RPMI 1640 medium containing 10% fetal bovine serum (FBS).
(§2) All cells were cultured for a minimum of 72 hours prior to cell plating. Cells were assayed in a 96-well tissue culture plate (NUNC 136102) of RPMI medium containing 10% FBS for all cells at 1,000 cells per well. […] ATP levels were determined by adding Cell Titer Glo® (Promega) according to the manufacturer's protocol. Briefly, Cell Titer Glo® was added each plate, incubated for 30 minutes then luminescent signal was read on the SpectraMax L plate reader with a 0.5 sec integration time.
(§3) Inhibition of cell growth was estimated after treatment with compound or combination of compounds for three days and comparing the signal to cells treated with vehicle (DMSO). Cell growth was calculated relative to vehicle (DMSO) treated control wells. […]
Combination effects on potency were evaluated using Combination Index (CI) which was calculated with the back-interpolated IC50 values and the mutually non-exclusive equation derived by Chou and Talalay (1): […]
The combination effects on the response scale were quantified by Excess Over Highest Single Agent (EOHSA) based on the concept of nonlinear blending as described in detail by Peterson and Novick (2007) and Peterson (2010) [(2;3) [Peterson and Novick, 2007; Peterson, 2010]. […]

EFM-19 = assay: Cell growth inhibition assay (Cell Titer Glo), EFM-19; assay type: cell-based; settings: Homo sapiens, EFM-19, 72 h, EFM-19 breast; KRAS/RAF WT; PIK3CA_H1049L; single agent, 3 days, mean ± std
From the text: as §1
as §2, with “plating.” for “plating. Cells were assayed in a 96-well tissue culture plate (NUNC 136102) of RPMI medium containing 10% FBS for all cells at 1,000 cells per well.”
as §3

RKO = assay: Cell growth inhibition assay (Cell Titer Glo), RKO; assay type: cell-based; settings: Homo sapiens, 72 h; RKO colon; BRAF_V600E; PIK3CA_H1047R; single agent, 3 days, mean ± std
From the text: as §1
as §2, with “plating.” for “plating. Cells were assayed in a 96-well tissue culture plate (NUNC 136102) of RPMI medium containing 10% FBS for all cells at 1,000 cells per well.”
as §3

HCT-8 = assay: Cell growth inhibition assay (Cell Titer Glo), HCT-8; assay type: cell-based; settings: Homo sapiens, 72 h; HCT-8 colon; KRAS_G13D; PIK3CA_E545K; single agent, 3 days, mean ± std
From the text: as §1
as §2, with “plating.” for “plating. Cells were assayed in a 96-well tissue culture plate (NUNC 136102) of RPMI medium containing 10% FBS for all cells at 1,000 cells per well.”
as §3

NCI-H508 = assay: Cell growth inhibition assay (Cell Titer Glo), NCI-H508; assay type: cell-based; settings: Homo sapiens, 72 h; NCI-H508 colon; BRAF_G596R; PIK3CA_E545K; single agent, 3 days, mean ± std
From the text: as §1
as §2, with “plating.” for “plating. Cells were assayed in a 96-well tissue culture plate (NUNC 136102) of RPMI medium containing 10% FBS for all cells at 1,000 cells per well.”
as §3

T84 = assay: Cell growth inhibition assay (Cell Titer Glo), T84; assay type: cell-based; settings: Homo sapiens, 72 h; T84 colon; KRAS_G13D; PrK3CA_E542K; single agent, 3 days, mean ± std
From the text: as §1
as §2, with “plating.” for “plating. Cells were assayed in a 96-well tissue culture plate (NUNC 136102) of RPMI medium containing 10% FBS for all cells at 1,000 cells per well.”
as §3

KM12 = assay: Cell growth inhibition assay (Cell Titer Glo), KM12; assay type: cell-based; settings: Homo sapiens, 72 h; KM12 colon; KRAS/RAF WT; PTEN_K267*; single agent, 3 days, mean ± std
From the text: as §1
as §2, with “plating.” for “plating. Cells were assayed in a 96-well tissue culture plate (NUNC 136102) of RPMI medium containing 10% FBS for all cells at 1,000 cells per well.”
as §3

LS-1034 = assay: Cell growth inhibition assay (Cell Titer Glo), LS-1034; assay type: cell-based; settings: Homo sapiens, 72 h; LS-1034 colon; KRAS_A146T; PIK3CA/PTEN WT; single agent, 3 days, mean ± std
From the text: as §1
as §2, with “plating.” for “plating. Cells were assayed in a 96-well tissue culture plate (NUNC 136102) of RPMI medium containing 10% FBS for all cells at 1,000 cells per well.”
as §3

Colo-205 = assay: Cell growth inhibition assay (Cell Titer Glo), Colo-205; assay type: cell-based; settings: Homo sapiens, 72 h; Colo-205 colon; BRAF_V600E; PIK3CA/PTEN WT; single agent, 3 days, mean ± std
From the text: as §1
as §2, with “plating.” for “plating. Cells were assayed in a 96-well tissue culture plate (NUNC 136102) of RPMI medium containing 10% FBS for all cells at 1,000 cells per well.”
as §3

SW1463 = assay: Cell growth inhibition assay (Cell Titer Glo), SW1463; assay type: cell-based; settings: Homo sapiens, 72 h; SW1463 colon; KRAS_G12C; PIK3CA/PTEN WT; single agent, 3 days, mean ± std
From the text: as §1
as §2, with “plating.” for “plating. Cells were assayed in a 96-well tissue culture plate (NUNC 136102) of RPMI medium containing 10% FBS for all cells at 1,000 cells per well.”
as §3

HT-29 = assay: Cell growth inhibition assay (Cell Titer Glo), HT-29; assay type: cell-based; settings: Homo sapiens, 72 h; HT-29 colon; BRAF_V600E; PIK3CA_P449T; single agent, 3 days, mean ± std
From the text: as §1
as §2, with “plating.” for “plating. Cells were assayed in a 96-well tissue culture plate (NUNC 136102) of RPMI medium containing 10% FBS for all cells at 1,000 cells per well.”
as §3

SW480 = assay: Cell growth inhibition assay (Cell Titer Glo), SW480; assay type: cell-based; settings: Homo sapiens, 72 h; SW480 colon; PIK3CA/PTEN WT; single agent, 3 days, mean ± std
From the text: as §1
as §2, with “plating.” for “plating. Cells were assayed in a 96-well tissue culture plate (NUNC 136102) of RPMI medium containing 10% FBS for all cells at 1,000 cells per well.”
as §3

SW1417 = assay: Cell growth inhibition assay (Cell Titer Glo), SW1417; assay type: cell-based; settings: Homo sapiens, 72 h; SW1417 colon; BRAF_V600E; PIK3CA/PTEN WT; single agent, 3 days, mean ± std
From the text: as §1
as §2, with “plating.” for “plating. Cells were assayed in a 96-well tissue culture plate (NUNC 136102) of RPMI medium containing 10% FBS for all cells at 1,000 cells per well.”
as §3

COR-L23 = assay: Cell growth inhibition assay (Cell Titer Glo), COR-L23; assay type: cell-based; settings: Homo sapiens, 72 h; COR-L23 lung; KRAS_G12V; PIK3CA/PTEN WT; single agent, 3 days, mean ± std
From the text: as §1
as §2, with “plating.” for “plating. Cells were assayed in a 96-well tissue culture plate (NUNC 136102) of RPMI medium containing 10% FBS for all cells at 1,000 cells per well.”
as §3

- IC50 (MDA-MB-175-VII; Homo sapiens, 72 h, MDA-MB-175-VII breast, KRAS/RAF WT, PIK3CA/PTEN WT, single agent, 3 days, mean ± std): 96 ± 33 nM
- IC50 (HCT-8): 55 ± 11 nM
- IC50 (NCI-H508): 23 ± 2 nM
- IC50 (Colo-205): 1 nM
- IC50 (SW1463): 4 ± 3 nM
- IC50 (HT-29): 2 ± 1 nM
- IC50 (SW480): 37 ± 15 nM
- IC50 (SW1417): 3 ± 1 nM
Compound: CC(=O)Nc1cccc(-n2c(=O)n(C3CC3)c(=O)c3c(Nc4ccc(I)cc4F)n(C)c(=O)c(C)c32)c1 [Compound A, N-{3-[3-cyclopropyl-5-(2-fluoro-4-iodo-phenylamino)-6,8-dimethyl-2,4,7-trioxo-3,4,6,7-tetrahydro-2H-pyrido[4,3-d]pyrimidin-1-yl]phenyl}acetamide]
- sensitivity as a single agent (in words) (MDA-MB-175-VII; MDA-MB-175-VII cells): sensitive
- IC50 (EFM-19): > 1000 nM
- IC50 (RKO): 18 ± 1 nM
- IC50 (T84): 61 ± 31 nM
- IC50 (KM12): 23 ± 21 nM
- IC50 (LS-1034): 5 nM
- IC50 (COR-L23): 329 ± 237 nM
